Test results published in patent US4622217A, “I-4-amino-3-iodobenzylguanidine as imaging and therapeutic agent” (The Regents of the University of Michigan, priority 1984, dated 1986).
One block for each molecule: values may come before it.

Columns and labels:
adrenergic tissues = assay: Accumulation in adrenergic tissues; type: in vivo; details: localizes in adrenergic neurons of the heart and chromaffin granules of the adrenal medulla
[1] = Biological tissue distribution in monkeys after intravenous injection; type: in vivo, monkey; details: 3 hours, i.v. 100 μCi
Method: (§1) Biological tissue distribution studies were performed in rats, dogs, and monkeys injected intravenously with 25 μCi, 100 μCi and 100 μCi, respectively, of I-125 4-amino-3-iodobenzylguanidine in an average volume of 0.2 ml, 2 ml, and 1 ml, respectively. Representative samples of tissues were counted in an autogamma counter with corrections made for radioactive decay, background, and counter efficiency. To normalize for differences in animal weights, tissue concentrations are expressed as percent kilogram dose per gram.

[2] = Biological tissue distribution in dogs after intravenous injection; type: in vivo, dog (Female Mongrel); details: i.v. 100 μCi
Method: as §1

[3] = Biological tissue distribution in rats after intravenous injection; type: in vivo, rat (Female Sprague-Dawley); details: 90 min, i.v. 25 μCi
Method: as §1

[4] = Radio-decomposition on storage in buffer; type: physicochemical; details: up to 14 days, pH 4.8 sodium acetate buffer (0.005M), 1% (v/v) benzyl alcohol, 4° C., dark
[5] = tested on: adrenergic nerves of the heart; assay: Selectivity for the adrenergic nerves of the heart; details: in vivo

Structure (SMILES): N=C(N)NCc1ccc(N)c(I)c1 [4-amino-3-iodobenzylguanidine]
accumulation in adrenergic tissues (adrenergic tissues): accumulated in adrenergic tissues in a manner similar to norepinephrine and guanethidine

tissue concentration (Mean + S.E.M.) ([1]; Adrenal Cortex): 0.60 ± .04 % Kg Dose/g
tissue concentration (Mean + S.E.M.) ([1]; Adrenal Modullae): 1.98 ± .14 % Kg Dose/g
tissue concentration (Mean + S.E.M.) ([1]; Blood): 0.03 ± .01 % Kg Dose/g
tissue concentration (Mean + S.E.M.) ([1]; Heart (Left Ventricle)): 0.85 ± .11 % Kg Dose/g
tissue concentration (Mean + S.E.M.) ([1]; Liver): 0.17 ± .04 % Kg Dose/g
tissue concentration (Mean + S.E.M.) ([1]; Lung): 0.99 ± .53 % Kg Dose/g
tissue concentration (Mean + S.E.M.) ([1]; Muscle): 0.03 ± .55 % Kg Dose/g
tissue concentration (Mean + S.E.M.) ([1]; Thyroid): 1.07 ± .55 % Kg Dose/g
tissue concentration (Mean + S.E.M.) ([2]; 30 min, Adrenal Cortex): 0.62 ± 0.16 % kg dose/g
tissue concentration (Mean + S.E.M.) ([2]; 30 min, Adrenal Medulla): 8.8 ± 2.8 % kg dose/g
tissue concentration (Mean + S.E.M.) ([2]; 30 min, Blood): 0.03 % kg dose/g
tissue concentration (Mean + S.E.M.) ([2]; 30 min, Heart (Left Ventricle)): 0.49 ± 0.05 % kg dose/g
tissue concentration (Mean + S.E.M.) ([2]; 30 min, Liver): 0.36 ± 0.02 % kg dose/g
tissue concentration (Mean + S.E.M.) ([2]; 30 min, Lung): 0.88 ± 0.61 % kg dose/g
tissue concentration (Mean + S.E.M.) ([2]; 30 min, Muscle): 0.05 ± 0.02 % kg dose/g
tissue concentration (Mean + S.E.M.) ([2]; 30 min, Thyroid): 1.02 ± 0.06 % kg dose/g
tissue concentration (Mean + S.E.M.) ([2]; 2 hours, Adrenal Cortex): 0.51 ± 0.15 % kg dose/g
tissue concentration (Mean + S.E.M.) ([2]; 2 hours, Adrenal Medulla): 10.4 ± 0.8 % kg dose/g
tissue concentration (Mean + S.E.M.) ([2]; 2 hours, Blood): 0.03 % kg dose/g
tissue concentration (Mean + S.E.M.) ([2]; 2 hours, Heart (Left Ventricle)): 0.52 ± 0.02 % kg dose/g
tissue concentration (Mean + S.E.M.) ([2]; 2 hours, Liver): 0.2 ± 0.02 % kg dose/g
tissue concentration (Mean + S.E.M.) ([2]; 2 hours, Lung): 1.26 ± 0.2 % kg dose/g
tissue concentration (Mean + S.E.M.) ([2]; 2 hours, Muscle): 0.04 ± 0.01 % kg dose/g
tissue concentration (Mean + S.E.M.) ([2]; 2 hours, Thyroid): 0.85 ± 0.11 % kg dose/g
tissue concentration (Mean + S.E.M.) ([2]; 72 hours, Adrenal Cortex): 0.13 ± 0.06 % kg dose/g
tissue concentration (Mean + S.E.M.) ([2]; 72 hours, Adrenal Medulla): 18.3 ± 1.8 % kg dose/g
tissue concentration (Mean + S.E.M.) ([2]; 72 hours, Blood): 0.02 % kg dose/g
tissue concentration (Mean + S.E.M.) ([2]; 72 hours, Heart (Left Ventricle)): 0.06 ± 0.01 % kg dose/g
tissue concentration (Mean + S.E.M.) ([2]; 72 hours, Liver): 0.05 % kg dose/g
tissue concentration (Mean + S.E.M.) ([2]; 72 hours, Lung): 0.09 ± 0.01 % kg dose/g
tissue concentration (Mean + S.E.M.) ([2]; 72 hours, Muscle): 0.01 % kg dose/g
tissue concentration (Mean + S.E.M.) ([2]; 72 hours, Thyroid): 14.6 ± 2.4 % kg dose/g
tissue concentration (Mean + S.E.M.) ([3]; Blood): 0.08 ± .01 % Kg Dose/g
tissue concentration (Mean + S.E.M.) ([3]; Left Atrium): 0.55 ± .06 % Kg Dose/g
tissue concentration (Mean + S.E.M.) ([3]; Left Ventricle): 0.46 ± .05 % Kg Dose/g
tissue concentration (Mean + S.E.M.) ([3]; Liver): 0.09 ± .01 % Kg Dose/g
tissue concentration (Mean + S.E.M.) ([3]; Right Atrium): 0.66 ± .05 % Kg Dose/g
tissue concentration (Mean + S.E.M.) ([3]; Right Ventricle): 0.70 ± .02 % Kg Dose/g
tissue concentration (Mean + S.E.M.) ([3]; Spleen): 0.35 ± .01 % Kg Dose/g
Structure (SMILES): N=C(N)NCc1ccc(N)c([125I])c1 [I-125 4-amino-3-iodobenzylguanidine]

degraded at 336 h [4]: < 4%
Structure (SMILES): N=C(N)NCc1ccc(N)c([131I])c1 [I-131-labeled compound, ^131 I-4-Amino-3-Iodobenzylguanidine]

Structure (SMILES): N=C(N)NCc1ccc(N)c(I)c1 [radioiodinated compound, radioiodinated 4-amino-3-iodobenzylguanidine]
selectivity for the adrenergic nerves of the heart [5]: high degree of selectivity for the adrenergic nerves of the heart
